pIC50: −log10 of the molar value. Read-outs that look alike come from different tables or passages of the source.
Columns and labels:
[1] = molecular target: T1, rho transcription termination factor (Escherichia coli, UniProt P0AG30); test: Rho poly(C)-dependent ATPase assay, inhibition by metal chelates and bicyclomycin; type: biochemical, E. coli; set-up: made in house; host or cells: E. coli strain AR120 with plasmid p39-ASE; details: (DL)DTT 0.1-0.3 mM alone or equimolar with metal chloride, in presence of MgCl2
Protocol: Rho poly(C)-dependent ATPase assay.
The reactions were analyzed as described above.

[2] = molecular target: T1, rho transcription termination factor; details: for Vmax(app) / % activity (Vmax or Vpeak) / % efficiency (Vmax/KM or Vpeak/KM) / Vpeak(app): Mg^2+-free; for Vmax(app) / Vpeak(app): from activation curves; for % activity (Vmax or Vpeak) / % efficiency (Vmax/KM or Vpeak/KM): relative to Mg^2+; for metal activation profile: absence of MgCl2, 1.9-4000 μM metal; for n (Hill): nonlinear regression of velocity curves; for effect on rho poly(C)-dependent ATP hydrolysis in the absence of MgCl2: (DL)DTT-free buffer; for peak velocity / total metal concentration at peak velocity: absence of MgCl2, FIG. 8
Protocol: Rho poly(C)-dependent ATPase assay. […] The ribonucleotide-stimulated ATPase activity of rho at 32° C. was assayed by the amount of ^32P-labeled inorganic phosphate hydrolyzed from ATP after separation on PEI-TLC plates (prerun with water and dried) using 0.75 M potassium phosphate (pH 3.5) as the mobile phase. Reactions were initiated by adding ATP (varying concentrations) and 0.5 μCi [γ-^32P] ATP to the solution containing 40 mM Tris-HCl (pH 7.9), 50 mM KCl, 100 nM or 250 nM poly(C), 100 or 250 nM rho (monomer) and MgCl2 (1 mM or 10 mM). The TLC plates were exposed to PhosphorImager plates (Fuji and Molecular Dynamics) (3 h), scanned on a Storm 860 PC PhosphorImager and analyzed using Molecular Dynamic's ImageQuant 5.0. The initial rates of the reactions were determined by plotting the amount of ATP hydrolyzed against time. Each reaction was performed in duplicate and the results averaged.
A. Divalent Metal Activation of Rho in the Absence of MgCl2. […] For each metal, wild-type rho was pretreated with 20 mM EDTA to deplete the protein of residual metals and removed the excess EDTA and the metal•EDTA complex by a spin column.

[3] = molecular target: T1, rho transcription termination factor; details: for pIC50: read-out: I50, rho poly(C)-dependent ATP hydrolysis; for rho inhibition at 4000 μM: 4000 μM metal
Protocol: Rho poly(C)-dependent ATPase assay. See, generally, Sharp et al., (1983) A kinetic mechanism for the poly(C)-dependent ATPase of the Escherichia coli transcription termination protein, rho, J. Biol. Chem. 258, 3482-3486. The ribonucleotide-stimulated ATPase activity of rho at 32° C. was assayed by the amount of ^32P-labeled inorganic phosphate hydrolyzed from ATP after separation on PEI-TLC plates (prerun with water and dried) using 0.75 M potassium phosphate (pH 3.5) as the mobile phase. Reactions were initiated by adding ATP (varying concentrations) and 0.5 μCi [γ-^32P] ATP to the solution containing 40 mM Tris-HCl (pH 7.9), 50 mM KCl, 100 nM or 250 nM poly(C), 100 or 250 nM rho (monomer) and MgCl2 (1 mM or 10 mM). The TLC plates were exposed to PhosphorImager plates (Fuji and Molecular Dynamics) (3 h), scanned on a Storm 860 PC PhosphorImager and analyzed using Molecular Dynamic's ImageQuant 5.0. The initial rates of the reactions were determined by plotting the amount of ATP hydrolyzed against time. Each reaction was performed in duplicate and the results averaged.
B. Divalent Metal Activation of Rho in the Presence of MgCl2. To provide additional information concerning the roles of divalent metals in rho activation, the poly(C)-dependent assays were repeated in the presence of 10 mM MgCl2 and varying concentrations (10, 20, 40, 80, 125, 160, 250, 320, 500, 640 μM) of the divalent metals.

E. coli RecA = E. coli RecA (Escherichia coli, UniProt P0A7G6); test: RecA poly(dT)-dependent ATP hydrolysis; type: biochemical; details: bicyclomycin 0-400 μM; Zn-(L)DTT equimolar
Protocol: The validity of some of these new leads has been questioned, and attention is now focused on determining the inhibition pathway for these compounds and whether the inhibitors show enzyme specificity. McGovern et al., (2001) A common mechanism underlying promiscuous inhibitors from virtual and high-throughput screening, J. Med. Chem. 45, 1712-1722. Compounds that show nonspecific interaction have been defined as “promiscuous inhibitors.” The inhibitor specificity of Zn-(L)DTT complexes was tested. […] Next, the time dependency for chelate inhibition was examined because a well-behaved, reversible inhibitor is typically not affected by incubation time. McGovern et al., (2001). […] The effect of Zn-(L)DTT solutions on E. coli RecA poly (dT)-dependent ATP hydrolysis was determined.

[4] = molecular target: T1, rho transcription termination factor; set-up: made in house; host or cells: E. coli strain AR120 with plasmid p39-ASE; details: poly(dC)-ribo(C)10 ATPase assay, literature (Magyar 1996); cited from earlier work
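Wherever % activity (Vmax or Vpeak) is given: Poly(C)-dependent ATP hydrolysis by wild-type rho with other divalent metals in place of magnesium, radiolabeled ATP at varied levels, TLC phosphorimaging, initial rates from hydrolyzed ATP versus time.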
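Wherever % efficiency (Vmax/KM or Vpeak/KM) is given: Poly(C)-dependent ATP hydrolysis by wild-type rho with other divalent metals in place of magnesium, radiolabeled ATP at varied levels, TLC phosphorimaging, initial rates from hydrolyzed ATP versus time.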
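Wherever Vmax(app) is given: Poly(C)-dependent ATP hydrolysis by wild-type rho with other divalent metals in place of magnesium, radiolabeled ATP at varied levels, TLC phosphorimaging, initial rates from hydrolyzed ATP versus time.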
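Wherever metal activation profile is given: Poly(C)-dependent ATP hydrolysis by wild-type rho with other divalent metals in place of magnesium, radiolabeled ATP at varied levels, TLC phosphorimaging, initial rates from hydrolyzed ATP versus time.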

T1 sequence (P0AG30 whole entry): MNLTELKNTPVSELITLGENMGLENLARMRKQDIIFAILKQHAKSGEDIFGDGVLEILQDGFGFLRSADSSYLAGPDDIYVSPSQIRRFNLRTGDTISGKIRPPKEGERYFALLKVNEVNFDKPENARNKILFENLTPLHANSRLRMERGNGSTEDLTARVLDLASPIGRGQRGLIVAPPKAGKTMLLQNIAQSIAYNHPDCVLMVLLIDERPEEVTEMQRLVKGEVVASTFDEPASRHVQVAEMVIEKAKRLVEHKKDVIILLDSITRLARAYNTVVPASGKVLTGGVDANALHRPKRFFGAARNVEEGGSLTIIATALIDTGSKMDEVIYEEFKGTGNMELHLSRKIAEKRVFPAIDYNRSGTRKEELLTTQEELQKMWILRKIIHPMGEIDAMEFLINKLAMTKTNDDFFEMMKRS
E. coli RecA, sequence (P0A7G6 2-353): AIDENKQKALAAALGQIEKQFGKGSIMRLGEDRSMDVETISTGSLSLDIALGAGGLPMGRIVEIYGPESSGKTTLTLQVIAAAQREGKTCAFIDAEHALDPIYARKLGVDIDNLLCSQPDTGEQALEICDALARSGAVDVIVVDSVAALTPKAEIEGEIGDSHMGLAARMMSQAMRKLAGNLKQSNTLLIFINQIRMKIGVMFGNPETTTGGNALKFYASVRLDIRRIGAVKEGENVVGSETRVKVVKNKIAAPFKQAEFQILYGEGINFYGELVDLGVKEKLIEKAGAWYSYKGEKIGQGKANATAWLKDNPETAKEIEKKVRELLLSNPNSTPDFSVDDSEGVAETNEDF

Structure (SMILES)	Vmax(app) [2]	% activity (Vmax or Vpeak) [2]	metal activation profile [2]	effect on ATP hydrolysis rate in the presence of MgCl2 ([3]; 10 mM MgCl2)	% efficiency (Vmax/KM or Vpeak/KM) [2]	n (Hill) [2]	also measured
OC(CS)C(O)CS (racemic) [(DL)DTT, dithiothreitol]	–	–	–	–	–	–	effect on rho poly(C)-dependent ATP hydrolysis [1]: did not inactivate the enzyme
[Be+2].[Cl-].[Cl-] [Be^2+]	0.21 mol/min/mg	2%	did not catalyze ATP hydrolysis	inhibited	–	–	activity at 100 μM ([3]; 100 μM BeCl2, 10 mM MgCl2): almost complete loss of activity; pIC50 ([3]; 10 mM MgCl2): 4.20
[Ca+2] [Ca^2+]	3.13 mol/min/mg	25%	Michaelis-Menten kinetics	negligible effects	74%	1	–
[Cd+2] [Cd^2+]	–	39%	peak velocities	negligible effects	20%	4.6	effect on rho poly(C)-dependent ATP hydrolysis in the absence of MgCl2 [2]: activated; Vpeak(app) [2]: 4.74 mol/min/mg; peak velocity [2]: 4.8 µmol/min/mg; total metal concentration at peak velocity [2]: 65 µM
[Co+2] [Co^2+]	7.65 mol/min/mg	62%	Michaelis-Menten kinetics	negligible effects	61%	1	–
[Cu+2] [Cu^2+]	1.54 mol/min/mg	13%	Michaelis-Menten kinetics	inhibited	39%	1	loss of activity ([3]; 10 mM MgCl2): ~30%
[Hg+2] [Hg^2+]	0.78 mol/min/mg	6%	Michaelis-Menten kinetics	inhibited	29%	1	rho inhibition at 4000 μM ([3]; 10 mM MgCl2): ~50%
[Mg+2] [Mg^2+]	12.3 mol/min/mg	100%	Michaelis-Menten kinetics	–	100%	1	efficiency (Vmax/KM or Vpeak/KM) relative to Co^2+ [2]: 1.5 times
[Cl][Mn][Cl] [Mn^2+]	–	97%	peak velocities	–	89%	1	efficiency (Vmax/KM or Vpeak/KM) relative to Co^2+ [2]: 1.6 times; % of maximum activity at 4000 μM ([2]; 4000 μM total metal): 10%; effect on rho poly(C)-dependent ATP hydrolysis in the absence of MgCl2 [2]: activated; Vpeak(app) [2]: 11.9 mol/min/mg; peak velocity [2]: 11.9 µmol/min/mg; total metal concentration at peak velocity [2]: 250 µM
[Cl][Ni][Cl] [Ni^2+]	4.79 mol/min/mg	39%	sigmoidal activation pattern	negligible effects	29%	2.9	effect on rho poly(C)-dependent ATP hydrolysis in the absence of MgCl2 [2]: activated
[Sr+2] [Sr^2+]	0.17 mol/min/mg	1%	did not catalyze ATP hydrolysis	negligible effects	–	1	–
[O]=[V+2] [VO^2+]	0.78 mol/min/mg	6%	Michaelis-Menten kinetics	negligible effects	–	1	–
[Cl-].[Cl-].[Zn+2] [Zn^2+]	–	81%	peak velocities	inhibited	51%	5.5	activity remaining at 190 μM total metal ([2]; 190 μM [Zn^2+]total): 50%; velocity at 1000 μM total metal ([2]; 1000 μM [Zn^2+]total): zero; effect on rho poly(C)-dependent ATP hydrolysis in the absence of MgCl2 [2]: activated; Vpeak(app) [2]: 9.98 mol/min/mg; peak velocity [2]: 9.4 µmol/min/mg; total metal concentration at peak velocity [2]: 125 µM; pIC50 ([2]; read-out: I50, rho poly(C)-dependent ATP hydrolysis, 0 mM MgCl2, estimated): 3.72; rho inhibition at 4000 μM ([3]; 10 mM MgCl2): ~50%; change of I50 on 10-fold poly(C) ([3]; poly(C) concentration increased 10-fold): increased only slightly; pIC50 ([3]; 1 mM MgCl2, estimated): 3.72; pIC50 ([3]; 10 mM MgCl2): 2.40
C=C1CCO[C@]2([C@@H](O)[C@@](C)(O)CO)NC(=O)[C@@]1(O)NC2=O [bicyclomycin, Bicyclomycin]	–	–	–	–	–	–	effect on RecA poly(dT)-dependent ATP hydrolysis (E. coli RecA): no loss in RecA ATPase activity; inhibition kinetics with respect to ribo(C)10 [4]: mixed inhibition pattern
